Here are results for 25 molecules from patent US20090275574A1, “NOVEL COMPOUNDS-300” (ASTRAZENECA AB, priority 2008, published 2009).

Where only a bound is given, the exact number is not on record here.

Format in all cases: cell-based
Test [1] deals with T1, hM1 (human Muscarinic receptor subtype 1) (Homo sapiens, UniProt P11229).
T1 construct: expressed in transfected cells; host or cells: CHO cells (ATCC)
T1 sequence (P11229 1-460): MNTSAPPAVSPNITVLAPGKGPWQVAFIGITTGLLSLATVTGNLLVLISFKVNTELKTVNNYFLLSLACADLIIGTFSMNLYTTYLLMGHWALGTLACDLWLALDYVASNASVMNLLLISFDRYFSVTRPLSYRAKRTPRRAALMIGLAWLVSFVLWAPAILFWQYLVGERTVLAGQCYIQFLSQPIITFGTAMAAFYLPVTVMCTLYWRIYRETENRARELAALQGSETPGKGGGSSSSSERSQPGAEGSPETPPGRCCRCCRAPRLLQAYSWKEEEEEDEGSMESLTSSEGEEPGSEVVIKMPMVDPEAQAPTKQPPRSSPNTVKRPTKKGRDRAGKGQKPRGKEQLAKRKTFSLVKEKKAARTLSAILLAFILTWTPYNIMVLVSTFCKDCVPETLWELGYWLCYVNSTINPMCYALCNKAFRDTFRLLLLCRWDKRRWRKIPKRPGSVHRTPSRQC
Briefly: Human M1 calcium mobilization FLIPR assay. The conditions noted are these: hM1 expressed in CHO cells, intracellular Ca2+ release (FLIPR). How it is done:
(§1) Human M1, rat M1, Human M3 and Human M5 Calcium Mobilization FLIPR™ Assay The compound activity in the present invention (EC50 or IC50) is measured using a 384 plate-based imaging assay that monitors drug induced intracellular Ca^2+ release in whole cells. Activation of hM1 (human Muscarinic receptor subtype 1, gene bank access NM_000738), rM1 (rat Muscarinic receptor subtype 1, gene bank access NM_080773), hM3 (human Muscarinic receptor subtype 3, gene bank access NM_000740NM_000740) and hM5 (human Muscarinic receptor subtype 5, gene bank access NM_0121258), receptors expressed in CHO cells (Chinese hamster ovary cells, ATCC) is quantified in a Molecular Devices FLIPR IITM instrument as an increase in fluorescent signal. Inhibition of hM3 and hM5 by compounds is determined by the decrease in fluorescent signal in response to 2 nM acetylcholine activation. […] Prior to experiment, the cell culture medium is removed from the plates by inversion. […] Plates are incubated at 37° C. for 60 minutes prior to start the experiment. The incubation is terminated by washing the cells four times in assay buffer, leaving a residual 25 μl buffer per well. Cell plates are then transferred to the FLIPR, ready for compound additions. The day of experiment, acetylcholine and compounds are diluted in assay buffer in three-fold concentration range (10 points serial dilution) for addition by FLIPR instrument. For all calcium assays, a baseline reading is taken for 10 seconds followed by the addition of 12.5 μl of compounds, resulting in a total well volume of 37.5 μl. Data is collected every second for 60 pictures and then every 6 seconds for 20 pictures prior to the addition of agonist. For hM3 and hM5, before agonist addition, a second baseline reading is taken for 10 seconds followed by the addition of 12.5 μl of agonist or buffer, producing a final volume of 50 μl. After agonist stimulation, the FLIPR continues to collect data every second for 60 pictures and then every 6 seconds for 20 pictures. The fluorescence emission is read using filter 1 (emission 510-570 nm) by the FLIPR on board CCD camera. Calcium mobilization output data are calculated as the maximal relative fluorescence unit (RFU) minus the minimal value for both compound and agonist reading frame (except for hM1 and rM1 using only the maximal RFU). Data are analyzed using sigmoidal fits of a non-linear curve-fitting program (XLfit version 4.2.2 Excel add-in version 4.2.2 build 18 math 1Q version 2.1.2 build 18). All pEC50 and pIC50 values are reported as arithmetic means±standard error of mean of ‘n’ independent experiments.

Test [2] deals with T2, hM3 (human Muscarinic receptor subtype 3) (Homo sapiens, UniProt P20309).
T2 construct: expressed in transfected cells; host or cells: CHO cells (ATCC)
T2 sequence (P20309 whole entry): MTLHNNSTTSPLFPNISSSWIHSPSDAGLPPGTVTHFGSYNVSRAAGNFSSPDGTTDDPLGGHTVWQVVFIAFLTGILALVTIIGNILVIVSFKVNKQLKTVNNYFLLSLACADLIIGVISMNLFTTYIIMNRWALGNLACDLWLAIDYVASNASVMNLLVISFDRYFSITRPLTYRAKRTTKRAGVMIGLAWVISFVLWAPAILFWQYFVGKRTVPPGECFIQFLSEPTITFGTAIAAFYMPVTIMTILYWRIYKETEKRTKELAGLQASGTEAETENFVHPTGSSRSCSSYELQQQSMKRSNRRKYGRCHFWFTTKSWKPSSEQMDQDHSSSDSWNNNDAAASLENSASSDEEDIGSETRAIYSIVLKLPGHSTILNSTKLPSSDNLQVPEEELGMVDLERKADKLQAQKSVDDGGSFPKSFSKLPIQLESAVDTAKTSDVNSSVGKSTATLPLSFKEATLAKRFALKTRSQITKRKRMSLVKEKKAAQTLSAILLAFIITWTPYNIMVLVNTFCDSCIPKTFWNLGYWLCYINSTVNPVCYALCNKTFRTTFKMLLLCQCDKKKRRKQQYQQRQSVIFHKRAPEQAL
Kind of test: Human M3 calcium mobilization FLIPR assay. The conditions noted are these: hM3 expressed in CHO cells, intracellular Ca2+ release (FLIPR). As to the method: as §1
For orientation: A change in cytosolic calcium serves as a functional read-out for many receptors and channels.

The target of test [3] is T3, hM5 (human Muscarinic receptor subtype 5) (Homo sapiens, UniProt P08912).
T3 construct: expressed in transfected cells; host or cells: CHO cells (ATCC)
T3 sequence (P08912 1-532): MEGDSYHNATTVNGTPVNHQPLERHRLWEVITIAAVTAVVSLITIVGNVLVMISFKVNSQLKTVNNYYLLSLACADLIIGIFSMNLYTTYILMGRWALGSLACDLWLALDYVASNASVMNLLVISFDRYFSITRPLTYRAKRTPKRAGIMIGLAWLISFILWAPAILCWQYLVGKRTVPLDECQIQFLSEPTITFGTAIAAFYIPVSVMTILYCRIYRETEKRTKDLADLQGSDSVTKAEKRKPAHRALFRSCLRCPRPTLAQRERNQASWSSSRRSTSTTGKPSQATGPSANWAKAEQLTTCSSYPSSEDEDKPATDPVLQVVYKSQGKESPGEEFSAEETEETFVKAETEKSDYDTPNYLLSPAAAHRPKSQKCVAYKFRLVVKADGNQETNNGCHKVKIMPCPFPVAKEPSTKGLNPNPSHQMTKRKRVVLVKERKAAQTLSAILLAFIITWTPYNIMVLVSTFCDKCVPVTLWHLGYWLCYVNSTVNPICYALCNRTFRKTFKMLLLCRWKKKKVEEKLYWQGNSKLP
Kind of test: Human M5 calcium mobilization FLIPR assay. The conditions noted are these: hM5 expressed in CHO cells, intracellular Ca2+ release (FLIPR). How it is done:
as §1

As to `CCOC[C@H]1CC[C@@H](N2CCC(N3C(=O)CO[C@H]4CCCC[C@@H]43)CC2)C1` [Example 42, (4aS,8aS)-4-(1-((1R,3S)-3-(ethoxymethyl)cyclopentyl)piperidin-4-yl)hexahydro-2H-benzo[b][1,4]oxazin-3(4H)-one], the EC50 (in general, the concentration at which the effect is half-maximal) is 4.2 nM in test [1], greater than 2100 nM in test [2] and greater than 4220 nM in test [3].

With `CCCOCC1CCC(N2CCC(N3C(=O)NC[C@H]4CCCC[C@@H]43)CC2)CC1` (single isomer, unassigned) [Example 02], the 50% effective concentration (EC50) was 2 nM in test [1], 1600 nM in test [2] and greater than 2770 nM in test [3].

`CC(C)OCC1CCC(N2CCC(N3C(=O)CO[C@H]4CCC(F)(F)C[C@@H]43)CC2)CC1` (single isomer, unassigned) [Example 37]: the values for the 50% effective concentration (EC50) in test [1], in test [2] and in test [3] were 34 nM, greater than 40000 nM and greater than 40000 nM, respectively.

In the case of `CCCOCC1CCC(N2CCC(N3C(=O)NC[C@H]4CCCC[C@@H]43)CC2)CC1` (single isomer, unassigned) [Example 01], the EC50 in test [1] was 21 nM; in test [2], greater than 40000 nM; in test [3], greater than 40000 nM.

On to `CC(C)OCC1CCC(N2CCC(N3C(=O)CO[C@H]4CCCC[C@@H]43)CC2)CC1` (mixture of isomers) [Example 15, (4aS,8aS)-4-(1-(4-(isopropoxymethyl)cyclohexyl)piperidin-4-yl)hexahydro-2H-benzo[b][1,4]oxazin-3(4H)-one], for which the figures for the half-maximal effective concentration (EC50) in test [1], in test [2] and in test [3] were 10 nM, greater than 40000 nM and greater than 40000 nM, respectively.

Regarding `CC(C)OCC1CCC(N2CCC(N3C(=O)CO[C@H]4CCCC[C@@H]43)CC2)CC1` (single isomer, unassigned) [Example 19], the EC50 in test [1] is 14 nM; in test [2], greater than 40000 nM; in test [3], greater than 40000 nM.

`CCOCC1CCC(N2CCC(N3C(=O)CO[C@H]4CCCC[C@@H]43)CC2)CC1` (single isomer, unassigned) [Example 13]: the values for the EC50 in test [1], in test [2] and in test [3] were 17 nM, greater than 40000 nM and greater than 40000 nM, respectively.

For the molecule `CCCOC1CCC(N2CCC(N3C(=O)NC[C@H]4CCCC[C@@H]43)CC2)CC1` (single isomer, unassigned) [Example 06], the half-maximal effective concentration (EC50) in test [1] is 41 nM.

Regarding `CC(C)OCC1CCC(N2CCC(N3C(=O)NC[C@H]4CCCC[C@@H]43)CC2)CC1` (single isomer, unassigned) [Example 04], the figures for the EC50 in test [1], in test [2] and in test [3] were 3.2 nM, 5100 nM and greater than 40000 nM, respectively.

Regarding `CCCOC1CCC(N2CCC(N3C(=O)CO[C@H]4CCCC[C@@H]43)CC2)CC1` (single isomer, unassigned) [Example 17], the EC50 in test [1] was found to be 88 nM.

On to `CCOC[C@@H]1CC[C@H](N2CCC(N3C(=O)CO[C@H]4CCCC[C@@H]43)CC2)C1` [Example 43, (4aS,8aS)-4-(1-((1S,3R)-3-(ethoxymethyl)cyclopentyl)piperidin-4-yl)hexahydro-2H-benzo[b][1,4]oxazin-3(4H)-one], for which the EC50 in test [1] is 12 nM; in test [2] it was greater than 40000 nM; in test [3], greater than 40000 nM.

With `O=C1COC2CCCC2N1C1CCN([C@H]2CC[C@@H](COCC3CC3)CC2)CC1` (single isomer, unassigned) [Example 48], the EC50 was 15 nM in test [1], greater than 40000 nM in test [2] and greater than 40000 nM in test [3].

Turning to `CC(C)OCC1CCC(N2CCC(N3C(=O)CO[C@H]4CCCC[C@@H]43)CC2)CC1` (single isomer, unassigned) [Example 18], the 50% effective concentration (EC50) is 7.8 nM in test [1], greater than 40000 nM in test [2] and greater than 40000 nM in test [3].

As to `O=C1CO[C@H]2CCCC[C@@H]2N1C1CCN(C2CCC(COCC3CC3)CC2)CC1` (single isomer, unassigned) [Example 22], the EC50 in test [1] is 5.6 nM.

For `O=C1CO[C@H]2CCCC[C@@H]2N1C1CCN(C2CC(COCC3CCC3)C2)CC1` (single isomer, unassigned) [Example 40], the concentration for a half-maximal effect (EC50) in test [1] came out at 57 nM.

As to `O=C1CO[C@H]2CCCC[C@@H]2N1C1CCN(C2CCC(COCC(F)F)CC2)CC1` (single isomer, unassigned) [Example 26], the EC50 in test [1] was 17 nM; in test [2], greater than 40000 nM; in test [3], greater than 40000 nM.

Regarding `CCOCC1CCC(N2CCC(N3C(=O)CO[C@H]4CCCC[C@@H]43)CC2)CC1` (single isomer, unassigned) [Example 14], the EC50 in test [1] was 9.9 nM; in test [2], greater than 40000 nM; in test [3], greater than 40000 nM.

In the case of `O=C1NC[C@H]2CCCC[C@@H]2N1C1CCN(C2CCC(COCC(F)F)CC2)CC1` (single isomer, unassigned) [Example 51], the concentration giving a half-maximal response (EC50) is 23 nM in test [1], greater than 40000 nM in test [2] and greater than 15700 nM in test [3].

As for `CCOCC1CCC(N2CCC(N3C(=O)CO[C@H]4CCCC[C@@H]43)CC2)C1` (single isomer, unassigned) [Example 45], the EC50 in test [1] was 48 nM; in test [2], greater than 40000 nM; in test [3], greater than 40000 nM.

Take `CCOCC1CCC(N2CCC(N3C(=O)CO[C@H]4CCCC[C@@H]43)CC2)C1` (single isomer, unassigned) [Example 44]: the EC50 in test [1] was 0.97 nM; in test [2] it was greater than 10000 nM; in test [3], 2920 nM.

On to `O=C1CO[C@H]2CCCC[C@@H]2N1C1CCN(C2CCC(COCCF)CC2)CC1` (single isomer, unassigned) [Example 25], for which the EC50 in test [1] is 9.6 nM; in test [2], greater than 40000 nM; in test [3] it was greater than 40000 nM.

Regarding `CCOCC1CCC(N2CCC(N3C(=O)NC[C@H]4CCCC[C@@H]43)CC2)CC1` (mixture of isomers) [Example 08, (4aR,8aS)-1-(1-(4-(ethoxymethyl)cyclohexyl)piperidin-4-yl)octahydroquinazolin-2(1H)-one], the EC50 in test [1] is 5.2 nM; in test [2], 1100 nM; in test [3], 69 nM.

For the molecule `O=C1CO[C@H]2CCCC[C@@H]2N1C1CCN(C2CCC(COCC3CC3)CC2)CC1` (single isomer, unassigned) [Example 23], the EC50 in test [1] came to 38 nM.

Turning to `CCOCC1CC(N2CCC(N3C(=O)CO[C@H]4CCCC[C@@H]43)CC2)C1` (single isomer, unassigned) [Example 39], the EC50 is 33 nM in test [1], greater than 40000 nM in test [2] and greater than 40000 nM in test [3].

With `O=C1CO[C@H]2CCCC[C@@H]2N1C1CCN(C2CCC(COCCF)CC2)CC1` (single isomer, unassigned) [Example 24], the EC50 in test [1] is 41 nM; in test [2] it was greater than 40000 nM; in test [3], greater than 40000 nM.
